This note sets out measurements from ChEMBL document CHEMBL2086272, “Anticlastogenic effect in human lymphocytes by the sodium salt of 3,4-secoisopimar-4(18),7,15-trien-3-oic acid” (J Nat Prod, 2012).

Series [1] has as its system PBL. The experiment in a line: Antimutagenic activity in human PBL assessed as inhibition of colcemid-induced frequency of micronucleus per 1000 binucleated lymphocyte cells at 0.3 uM treated after treatment with colcemid by cytokinesis blocking technique (reference value: 3.33 +/- 0.33 micronucleus frequency/1000 binucleated lymphocyte cells). The series is classed as functional.

Series [2] relates to PBL. The experiment in a line: Cytotoxicity in human PBL assessed as nuclear division index at 33 uM pretreated before ethyl methanesulfonate (reference value: 1.63 +/- 0.11 nuclear division index). The series is classed as cell-based.
Series [3] relates to PBL. The experiment in a line: Cytotoxicity in human PBL assessed as nuclear division index at 0.3 uM treated after treatment with colcemid (reference value: 1.59 +/- 0.08 nuclear division index). The series is classed as cell-based.

For `C=C[C@@]1(C)CC[C@H]2C(=CC[C@@H](C(=C)C)[C@]2(C)CCC(=O)[O-])C1.[Na+]`, the Activity in series [1] is recorded as 11.25; in series [2], 1.42; in series [3], 1.59.
